# Laboratory results from ChEMBL document CHEMBL6178021, “Optimization of Tambjamines Active against Multiple Stages of Malaria Parasites” (J Med Chem, 2025).
# pIC50: −log10 of the molar value.
# Experiments:
# [1] = Metabolic stability in mouse liver microsomes assessed as half life measured up to 60 mins by LC/MS analysis; assay type: ADME, Microsome
# Plasmodium falciparum [2] = test: microbe, parasite or virus in culture; conditions: Dd2, 72 h
# Description: Antiplasmodial activity against asexual blood-stage Plasmodium falciparum Dd2 using 2% haematocrit and 0.2% parasitemia assessed as reduction in fluorescence measured after 72 hrs by Malaria SYBR Green I-based Fluorescence (MSF) assay
# [3] = Solubility of the compound in potassium phosphate buffer at pH 7.4 by UV-vis spectroscopy; conditions: buffer
# MDR1 (human) [4] = test: Apparent permeability across basolateral to apical side in MDCK transfected with human MDR1 cells incubated for 1 hr by LC-MS analysis; conditions: dog, MDCK-MDR1
# in vitro [5] = conditions: human
# Description: Selectivity index, ratio of IC50 for cytotoxicity against human HepG2 cells to IC50 for antiplasmodial activity against asexual blood-stage Plasmodium falciparum D6
# Plasmodium yoelii [6] = test: Antimalarial activity against erythrocytic Plasmodium yoelii MRA-428 infected in CF1 mouse assessed as reduction in parasitemia at 50 mg/kg, po once daily for 4 days measured on day 5; assay type: functional; design: scale not given: the % may be the effect or the level left; conditions: time 4 day
# Plasmodium falciparum [7] = test: Antiplasmodial activity against asexual blood-stage Plasmodium falciparum Tm90-C2B using 2% haematocrit and 0.2% parasitemia assessed as reduction in fluorescence measured after 72 hrs by Malaria SYBR Green I-based Fluorescence (MSF) assay; assay type: functional, organism-based
# Plasmodium yoelii [8] = test: Antimalarial activity against erythrocytic Plasmodium yoelii MRA-428 infected in CF1 mouse assessed as reduction in parasitemia at 25 mg/kg, po once daily for 4 days measured on day 5; assay type: functional; design: scale not given: the % may be the effect or the level left; conditions: time 4 day
# in vitro [9] = conditions: mouse, liver microsomes
# Plasmodium yoelii [10] = test: Antimalarial activity against erythrocytic Plasmodium yoelii MRA-428 infected in CF1 mouse assessed as cured mouse at 50 mg/kg, po once daily for 4 days measured on day 28 day; assay type: functional, organism-based; conditions: time 4.0 day
# Plasmodium yoelii [11] = test: Antimalarial activity against erythrocytic Plasmodium yoelii MRA-428 infected in CF1 mouse assessed as cured mouse at 25 mg/kg, po once daily for 4 days measured on day 28 day; assay type: functional, organism-based; conditions: time 4.0 day
# in vitro [12] = conditions: human, liver microsomes
# HepG2 = test: Cytotoxicity against human HepG2 cells assessed as cell viability measured after 48 hrs by MTT assay; assay type: toxicity, cell-based; conditions: hepg2
# [13] = Metabolic stability in human liver microsomes assessed as half life measured up to 60 mins by LC/MS analysis; assay type: ADME, Microsome
# MDR1 (human) [14] = test: Apparent permeability across apical to basolateral side in MDCK transfected with human MDR1 cells incubated for 1 hr by LC-MS analysis; conditions: dog, MDCK-MDR1
# MDR1 (human) [15] = test: Efflux ratio, ratio of apparent permeability across apical to basolateral side over basolateral to apical side in MDCK transfected with human MDR1 cells incubated for 1 hr by LC-MS analysis; conditions: dog
# Plasmodium yoelii [16] = test: Antimalarial activity against erythrocytic Plasmodium yoelii MRA-428 infected in CF1 mouse assessed as reduction in parasitemia at 10 mg/kg, po once daily for 4 days measured on day 5; assay type: functional; design: scale not given: the % may be the effect or the level left; conditions: time 4 day
# Plasmodium falciparum [17] = test: microbe, parasite or virus in culture; conditions: D6, 72 h
# Description: Antiplasmodial activity against asexual blood-stage Plasmodium falciparum D6 using 2% haematocrit and 0.2% parasitemia assessed as reduction in fluorescence measured after 72 hrs by Malaria SYBR Green I-based Fluorescence (MSF) assay
Structure (SMILES),half-life [1] [min],pIC50 (Plasmodium falciparum [2]),solubility [3] [µM],Papp B→A at 1 h (MDR1 (human) [4]) [×10⁻⁶ cm/s],selectivity ratio (in vitro [5]),Activity (Plasmodium yoelii [6]) [%],pIC50 (Plasmodium falciparum [7]),Activity (Plasmodium yoelii [8]) [%],microsomal CLint at 1 h (in vitro [9]) [µL/min/mg],Activity (Plasmodium yoelii [10]),Activity (Plasmodium yoelii [11]),microsomal CLint at 1 h (in vitro [12]) [µL/min/mg],pIC50 (HepG2),half-life [13] [min],Papp A→B at 1 h (MDR1 (human) [14]) [×10⁻⁶ cm/s],efflux ratio at 1 h (MDR1 (human) [15]),Activity (Plasmodium yoelii [16]) [%],pIC50 (Plasmodium falciparum [17])
FC(F)(F)[C@H]1CC[C@H](N/C=C2\N=C(c3ccc[nH]3)C3=C2CCCC3)CC1,> 60,7.30,237,0.52,366,100,7.49,100,5.49,Not active; One Mouse Cured Out Of Four,Not active; None Of The Mouse Cured Out Of Four Tested,40.8,4.91,33.9,1.2,0.43,,
C(/NC12C[C@H]3C[C@@H](C1)C[C@@H](C2)C3)=C1/N=C(c2ccc[nH]2)C2=C1OCCO2,27.9,8.08,114,0.85,444,,8.41,,49.8,,,118,5.42,11.7,0.14,6.1,0,
CCC1=C(CC)/C(=C/NC2CCCCC2)N=C1c1ccc(Cl)[nH]1,> 60,6.63,22.6,0.12,,,6.69,,0.67,,,8.01,,> 60,0.71,0.17,,6.41
CCC1=C(CC)/C(=C/NC23C[C@H]4C[C@@H](C2)C[C@@H](C3)C4)N=C1c1ccc(Cl)[nH]1,> 60,8.05,40,0.074,315,,8.14,90.7,,,,,5.35,> 60,0.34,0.22,23.2,7.85
CCC1=C(CC)/C(=C/NC23C[C@H]4C[C@@H](C2)C[C@@H](C3)C4)N=C1c1ccc(Cc2ccc(OC)cc2)[nH]1,> 60,9.06,26.2,0.008,775,,8.40,,4.57,,,11.7,5.79,> 60,0.04,0.21,0,8.68
CCc1ccc(C2=N/C(=C\NC3CCCCC3)C3=C2OCCO3)[nH]1,16.7,7.92,131,1.3,308,,8.87,19.4,82.8,,,27,5.71,51.3,0.25,5.2,0,8.20
COC(=O)[C@H]1CC[C@H](N/C=C2\N=C(c3ccc[nH]3)C3=C2CCCC3)CC1,10.3,6.80,383,1.1,334,100,6.77,,134,,,82.9,4.70,16.7,0.23,4.8,,
CCC1=C(CC)/C(=C/N[C@H]2CC[C@H](C(=O)OC)CC2)N=C1c1ccc[nH]1,12.6,6.52,121,0.74,,,6.39,,110,Not active; None Of The Mouse Cured Out Of Four Tested,,96.4,,14.4,0.088,8.4,,6.44
CCC1=C(CC)/C(=C/NC23C[C@H]4C[C@@H](C2)C[C@@H](C3)C4)N=C1c1ccccc1O,,6.73,,,93,,6.51,,,,,,4.92,,,,,6.89
CCC1=C(CC)/C(=C/NC2CCCCCC2)N=C1c1ccc(Cl)[nH]1,> 60,6.60,14.4,0.076,,,6.74,,8.33,,,22.2,,> 60,0.19,0.4,,6.34
CCC1=C(CC)/C(=C/NC23C[C@H]4C[C@@H](C2)C[C@@H](C3)C4)N=C1c1cc2cc(OC)ccc2[nH]1,> 60,7.34,24.4,0.001,125,,7.25,93.8,9.13,,,6.19,5.28,> 60,0.002,0.59,87.2,7.38
CCC1=C(CC)/C(=C/NC23C[C@H]4C[C@@H](C2)C[C@@H](C3)C4)N=C1c1ccc(-c2ccc(OC)cc2)[nH]1,12.1,8.27,12.4,0.016,113,,8.10,,110,,,114,6.00,12.2,0.03,0.53,11.5,8.05
C[C@H]1CC[C@H](N/C=C2\N=C(c3ccc[nH]3)C3=C2CCCC3)CC1,33,8.63,185,0.23,1320,100,7.88,41.2,41.9,,,54.1,5.11,25.6,0.27,0.85,,8.23
CCC1=C(CC)/C(=C/NC2CCCCC2)N=C1c1cc2cc(Cl)ccc2[nH]1,> 60,6.33,30.7,0.001,,,6.33,,19.7,,,56.5,,24.5,0.002,0.59,,6.27
COc1ccc(C2=C(c3ccc(OC)cc3)/C(=C/NC34C[C@H]5C[C@@H](C3)C[C@@H](C4)C5)N=C2c2ccc[nH]2)cc1,> 60,7.82,10.7,0.005,496,,7.82,,12.2,,,26.6,5.10,52.1,0.059,0.079,,
COC1=C(OC)/C(=C/NC2CCCCCC2)N=C1c1ccc[nH]1,14.6,7.45,199,2.78,290,,7.41,81.2,94.7,,,85.9,4.78,16.1,1.02,2.7,8.81,7.24
CCC1=C(CC)/C(=C/NC2CCCCCC2)N=C1c1ccc(Br)[nH]1,58.5,6.65,< 3.125,0.001,,,6.89,,23.7,,,13,,> 60,0.004,0.26,,6.55
CCC1=C(CC)/C(=C/NC23C[C@H]4C[C@@H](C2)C[C@@H](C3)C4)N=C1c1ccc(-c2ccccc2)[nH]1,15.1,8.88,< 3.125,0.002,800,,8.74,,91.8,,,29.5,5.69,46.9,2.85,,0,8.59
